Results taken from patent US11878975B2, “Substituted indole compounds useful as TLR inhibitors” (BRISTOL-MYERS SQUIBB COMPANY, priority 2017, dated 2024).

Assays:
Assay type in all cases: cell-based
[1] = molecular target: T1, human TLR7 (Homo sapiens, UniProt Q9NYK1); test: TLR7 inhibition reporter assay (HEK-Blue cells, SEAP reporter, gardiquimod stimulation); conditions: HEK-Blue cells overexpressing human TLR7, SEAP reporter, gardiquimod 7.5 μM
T1 construct: host or cells: HEK-Blue cells
T1 sequence (Q9NYK1 27-1049): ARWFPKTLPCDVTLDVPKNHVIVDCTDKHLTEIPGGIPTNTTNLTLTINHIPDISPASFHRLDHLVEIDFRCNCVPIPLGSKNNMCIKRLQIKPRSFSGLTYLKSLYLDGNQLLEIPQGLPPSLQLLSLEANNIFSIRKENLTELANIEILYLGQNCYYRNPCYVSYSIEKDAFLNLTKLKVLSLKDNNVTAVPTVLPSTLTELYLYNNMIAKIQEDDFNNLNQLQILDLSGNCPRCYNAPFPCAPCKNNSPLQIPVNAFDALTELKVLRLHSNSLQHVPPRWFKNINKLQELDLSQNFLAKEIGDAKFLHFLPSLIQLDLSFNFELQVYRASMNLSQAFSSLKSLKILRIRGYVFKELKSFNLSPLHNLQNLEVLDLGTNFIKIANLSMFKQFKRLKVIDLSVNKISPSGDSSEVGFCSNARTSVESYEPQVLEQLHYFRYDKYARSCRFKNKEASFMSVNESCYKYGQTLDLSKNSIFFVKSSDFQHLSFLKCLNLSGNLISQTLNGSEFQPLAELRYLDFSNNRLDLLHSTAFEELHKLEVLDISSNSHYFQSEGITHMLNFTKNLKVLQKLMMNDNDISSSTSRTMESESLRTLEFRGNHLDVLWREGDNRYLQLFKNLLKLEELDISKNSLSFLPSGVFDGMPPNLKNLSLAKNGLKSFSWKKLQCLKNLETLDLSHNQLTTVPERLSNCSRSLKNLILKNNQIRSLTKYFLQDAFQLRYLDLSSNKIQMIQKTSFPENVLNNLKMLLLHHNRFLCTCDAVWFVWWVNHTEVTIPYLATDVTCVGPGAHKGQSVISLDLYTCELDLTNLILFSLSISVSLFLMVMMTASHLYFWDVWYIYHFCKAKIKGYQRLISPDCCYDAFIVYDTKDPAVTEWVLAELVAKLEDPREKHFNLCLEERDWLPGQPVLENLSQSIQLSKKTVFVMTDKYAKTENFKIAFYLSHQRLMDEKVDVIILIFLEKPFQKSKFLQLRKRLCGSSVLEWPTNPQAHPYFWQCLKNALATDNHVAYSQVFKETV
Procedure, shortened: (§1)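 Dose range 0.05 nM–50 μM; 30 min preincubation, RT. Agonists: TLR7 gardiquimod 7.5 μM, TLR8 R848 15.9 μM, TLR9 ODN2006 5 nM. 22 h, 37 °C, 5% CO2. SEAP (IFN-β minimal promoter with NF-κB/AP-1 sites) via colorimetric detection medium; % inhibition vs agonist+DMSO and reference-inhibitor wells.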

[2] = molecular target: T2, human TLR8 (Homo sapiens, UniProt Q9NR97); test: TLR8 inhibition reporter assay (HEK-Blue cells, SEAP reporter, R848 stimulation); conditions: HEK-Blue cells overexpressing human TLR8, SEAP reporter, R848 15.9 μM
T2 construct: host or cells: HEK-Blue cells
T2 sequence (Q9NR97 27-1041): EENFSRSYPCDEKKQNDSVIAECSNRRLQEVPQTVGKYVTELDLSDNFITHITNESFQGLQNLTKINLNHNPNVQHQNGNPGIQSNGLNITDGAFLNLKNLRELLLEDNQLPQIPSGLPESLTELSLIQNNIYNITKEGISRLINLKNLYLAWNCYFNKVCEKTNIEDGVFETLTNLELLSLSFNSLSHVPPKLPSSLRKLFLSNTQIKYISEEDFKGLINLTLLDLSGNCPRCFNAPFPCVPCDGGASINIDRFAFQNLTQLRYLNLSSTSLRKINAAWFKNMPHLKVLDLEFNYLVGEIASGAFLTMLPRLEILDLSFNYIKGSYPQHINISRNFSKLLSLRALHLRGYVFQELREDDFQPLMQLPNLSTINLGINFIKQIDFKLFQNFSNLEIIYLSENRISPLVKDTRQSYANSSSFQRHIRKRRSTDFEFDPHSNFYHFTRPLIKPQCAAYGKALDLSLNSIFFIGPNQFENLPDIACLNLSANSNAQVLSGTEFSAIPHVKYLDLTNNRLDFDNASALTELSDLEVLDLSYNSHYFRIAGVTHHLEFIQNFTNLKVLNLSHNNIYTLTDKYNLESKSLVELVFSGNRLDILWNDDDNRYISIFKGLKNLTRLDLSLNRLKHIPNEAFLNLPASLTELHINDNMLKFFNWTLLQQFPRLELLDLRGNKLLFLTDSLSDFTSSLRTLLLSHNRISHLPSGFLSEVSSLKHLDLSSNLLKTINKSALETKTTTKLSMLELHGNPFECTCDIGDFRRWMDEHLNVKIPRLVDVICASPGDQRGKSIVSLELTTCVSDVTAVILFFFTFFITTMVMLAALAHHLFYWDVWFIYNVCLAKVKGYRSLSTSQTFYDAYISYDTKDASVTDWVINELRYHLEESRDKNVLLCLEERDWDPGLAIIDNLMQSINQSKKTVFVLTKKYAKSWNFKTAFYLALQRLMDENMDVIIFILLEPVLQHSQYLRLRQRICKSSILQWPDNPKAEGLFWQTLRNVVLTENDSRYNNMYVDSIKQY
Procedure, shortened: as §1

[3] = molecular target: T3, human TLR9 (Homo sapiens, UniProt Q9NR96); test: TLR9 inhibition reporter assay (HEK-Blue cells, SEAP reporter, ODN2006 stimulation); conditions: HEK-Blue cells overexpressing human TLR9, SEAP reporter, ODN2006 5 nM
T3 construct: host or cells: HEK-Blue cells
T3 sequence (Q9NR96 26-1032): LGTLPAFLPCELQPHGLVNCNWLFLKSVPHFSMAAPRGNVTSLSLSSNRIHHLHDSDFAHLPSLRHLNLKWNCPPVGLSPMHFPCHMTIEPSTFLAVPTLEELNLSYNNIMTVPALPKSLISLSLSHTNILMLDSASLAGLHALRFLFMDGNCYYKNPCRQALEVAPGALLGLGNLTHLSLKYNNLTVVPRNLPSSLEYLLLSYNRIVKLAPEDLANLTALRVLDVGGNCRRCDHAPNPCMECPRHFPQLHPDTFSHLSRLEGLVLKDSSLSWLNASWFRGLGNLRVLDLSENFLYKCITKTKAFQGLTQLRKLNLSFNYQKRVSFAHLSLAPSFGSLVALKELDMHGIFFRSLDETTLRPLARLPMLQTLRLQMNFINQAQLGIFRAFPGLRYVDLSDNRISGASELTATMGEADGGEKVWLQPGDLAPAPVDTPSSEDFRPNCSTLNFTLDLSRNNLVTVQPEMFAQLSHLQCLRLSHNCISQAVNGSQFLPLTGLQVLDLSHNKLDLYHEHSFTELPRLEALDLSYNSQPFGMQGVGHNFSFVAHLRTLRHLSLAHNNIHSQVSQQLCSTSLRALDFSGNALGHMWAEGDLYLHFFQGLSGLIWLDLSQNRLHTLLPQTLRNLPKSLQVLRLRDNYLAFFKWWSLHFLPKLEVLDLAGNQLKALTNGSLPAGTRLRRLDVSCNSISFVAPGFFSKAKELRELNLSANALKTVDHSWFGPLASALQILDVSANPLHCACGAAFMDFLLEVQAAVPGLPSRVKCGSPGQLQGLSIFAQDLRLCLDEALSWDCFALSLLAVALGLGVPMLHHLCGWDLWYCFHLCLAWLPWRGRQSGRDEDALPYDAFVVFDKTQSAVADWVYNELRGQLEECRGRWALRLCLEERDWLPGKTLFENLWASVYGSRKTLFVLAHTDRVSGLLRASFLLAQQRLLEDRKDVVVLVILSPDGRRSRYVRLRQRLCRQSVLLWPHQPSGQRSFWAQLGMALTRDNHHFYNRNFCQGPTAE
Procedure, shortened: as §1

IC50 [1] | IC50 [2] | IC50 [3] | Structure (SMILES)
5 nM | 0.48 nM | 12000 nM | Cc1c(-c2[nH]c3ccc(C4CC(NCCS(C)(=O)=O)C4)cc3c2C(C)C)cn(C)c(=O)c1C (stereo not drawn) [Example 494]
38 nM | 1.3 nM | 20700 nM | Cc1c(-c2[nH]c3ccc(C4CC(NCCS(C)(=O)=O)C4)cc3c2C(C)C)cn(C)c(=O)c1C (stereo not drawn) [Example 495]
57 nM | 4.3 nM | > 50000 nM | Cc1c(-c2[nH]c3ccc(C4CC(NC5COC5)C4)cc3c2C(C)C)cn(C)c(=O)c1C (stereo not drawn) [Example 496]
1 nM | 2.3 nM | 649 nM | Cc1cc(-c2[nH]c3ccc(C4CCC(N5CCOCC5)CC4)cc3c2C(C)C)cc(C)n1 (stereo not drawn) [Example 497]
5 nM | 18 nM | 531 nM | Cc1cc(-c2[nH]c3ccc(C4CCC(N5CCOCC5)CC4)cc3c2C(C)C)cc(C)n1 (stereo not drawn) [Example 498]
43 nM | 25 nM | 9970 nM | Cc1c(-c2[nH]c3ccc(C4CN(CC5CCOC5)C4)cc3c2C(C)C)cn(C)c(=O)c1Cl (stereo not drawn) [Example 499]
16 nM | 13 nM | 5370 nM | CCCN1CC(c2ccc3[nH]c(-c4cn(C)c(=O)c(Cl)c4C)c(C(C)C)c3c2)C1 [Example 500]
12 nM | 4.3 nM | 739 nM | CC(C)c1c(-c2ccnc3[nH]ncc23)[nH]c2ccc(C3CCCNCC3)cc12 (stereo not drawn) [Example 501]
71 nM | 23 nM | 313 nM | CC(C)c1c(-c2ccnc3[nH]ncc23)[nH]c2ccc(C3CCC(OC4CCNCC4)CC3)cc12 (stereo not drawn) [Example 502]
28 nM | 44 nM | 2860 nM | Cc1cc(-c2[nH]c3ccc(C4CCC(OC5CCNCC5)CC4)cc3c2C(C)C)ccn1 (stereo not drawn) [Example 503]
98 nM | 162 nM | 5010 nM | CC(C)c1c(-c2ccnc3[nH]ncc23)[nH]c2ccc(C3CCC(Oc4ccncc4)CC3)cc12 (stereo not drawn) [Example 504]
347 nM | 774 nM | 13900 nM | CC(C)c1c(-c2ccnc3[nH]ncc23)[nH]c2ccc(C3CCC(Oc4ccncc4)CC3)cc12 (stereo not drawn) [Example 505]
1 nM | 21 nM | 6590 nM | Cc1c(-c2[nH]c3ccc(C4CC5CNCC5C4)cc3c2C(C)C)cn2ncnc2c1C (stereo not drawn) [Example 506]
3 nM | 14 nM | 8180 nM | Cc1c(-c2[nH]c3ccc(C4CC5CN(CC(=O)N(C)C)CC5C4)cc3c2C(C)C)cn2ncnc2c1C (stereo not drawn) [Example 507]
0.43 nM | 11 nM | 1490 nM | COc1cc(-c2[nH]c3ccc(C4CC5CNCC5C4)cc3c2C(C)C)cn2ncnc12 (stereo not drawn) [Example 508]
0.27 nM | 2.4 nM | 2340 nM | COc1cc(-c2[nH]c3ccc(C4CC5CN(CC(=O)N(C)C)CC5C4)cc3c2C(C)C)cn2ncnc12 (stereo not drawn) [Example 509]
2 nM | 12 nM | 20700 nM | CNC(=O)CN1CC2CC(c3ccc4[nH]c(-c5cn6ncnc6c(C)c5C)c(C(C)C)c4c3)CC2C1 (stereo not drawn) [Example 510]
0.94 nM | 6.1 nM | 12300 nM | Cc1c(-c2[nH]c3ccc(C4CC5CN(CC(N)=O)CC5C4)cc3c2C(C)C)cn2ncnc2c1C (stereo not drawn) [Example 511]
3 nM | 15 nM | 16300 nM | Cc1c(-c2[nH]c3ccc(C4CC5CN(CC#N)CC5C4)cc3c2C(C)C)cn2ncnc2c1C (stereo not drawn) [Example 512]
0.96 nM | 20 nM | 12500 nM | COc1cc(-c2[nH]c3ccc(C4CC5CN(C6COC6)CC5C4)cc3c2C(C)C)cn2ncnc12 (stereo not drawn) [Example 513]
1 nM | 18 nM | 15700 nM | Cc1c(-c2[nH]c3ccc(C4CC5CN(CCS(C)(=O)=O)CC5C4)cc3c2C(C)C)cn2ncnc2c1C (stereo not drawn) [Example 514]
6 nM | 59 nM | 1230 nM | Cc1c(-c2[nH]c3ccc(C4CCC(N)CC4)cc3c2C(C)C)cn2cnnc2c1C (stereo not drawn) [Example 515]
3 nM | 13 nM | 707 nM | Cc1c(-c2[nH]c3ccc(C4CCC(N)CC4)cc3c2C(C)C)cn2cnnc2c1C (stereo not drawn) [Example 516]
5 nM | 42 nM | 2460 nM | Cc1c(-c2[nH]c3ccc(C4CCC(NCC(=O)N(C)C)CC4)cc3c2C(C)C)cn2cnnc2c1C (stereo not drawn) [Example 517]
2 nM | 16 nM | 1310 nM | Cc1c(-c2[nH]c3ccc(C4CCC(NCC(=O)N(C)C)CC4)cc3c2C(C)C)cn2cnnc2c1C (stereo not drawn) [Example 518]
6 nM | 127 nM | 2510 nM | Cc1c(-c2[nH]c3ccc(C4CC5CNCC5C4)cc3c2C(C)C)cn2cnnc2c1C (stereo not drawn) [Example 519]
29 nM | 66 nM | 17700 nM | Cc1c(-c2[nH]c3ccc(C4CC5CN(CC(=O)N(C)C)CC5C4)cc3c2C(C)C)cn2cnnc2c1C (stereo not drawn) [Example 520]
